ChEMBL document CHEMBL1201862, “PubChem BioAssay data set” (2004)
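Five compound concentrations were applied to cells in 96-well plates for 48 hours; endpoints were derived by simple linear interpolation of the resulting dose-response curve. GI50 is the concentration that inhibits growth by half.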 Calls of active or inactive are those of the source. Cut-off read from the data, not from the text of the source: active = GI50 up to about 1.1 µM and inactive = higher.

How the values were obtained:
Assay in all cases: growth of human tumour cells (NCI), 48 h
UACC-62 = system: UACC-62
OVCAR-8 = system: OVCAR-8
OVCAR-4 = system: OVCAR-4
ACHN = system: ACHN
U-251 = system: U-251
Malme-3M = system: Malme-3M
PC-3 = system: PC-3
HCT-116 = system: HCT-116
OVCAR-3 = system: OVCAR-3
SK-MEL-28 = system: SK-MEL-28
MCF7 = system: MCF7
IGROV-1 = system: IGROV-1
CAKI-1 = system: CAKI-1
RXF 393 = system: RXF 393
MDA-MB-231 = system: MDA-MB-231
KM12 = system: KM12
HOP-62 = system: HOP-62
UO-31 = system: UO-31
CCRF-CEM = system: CCRF-CEM
HCC 2998 = system: HCC 2998

Measured: GI50

Cc1ccc(NC(=O)c2ccccc2C(=O)O)cc1C
inactive: UACC-62 > 100 µM | OVCAR-8 > 100 µM | OVCAR-4 > 100 µM | ACHN > 100 µM | U-251 > 100 µM | Malme-3M > 100 µM | PC-3 > 100 µM | HCT-116 > 100 µM | OVCAR-3 > 100 µM | SK-MEL-28 > 100 µM | MCF7 > 100 µM | IGROV-1 > 100 µM | CAKI-1 > 100 µM | RXF 393 > 100 µM | MDA-MB-231 > 100 µM | KM12 > 100 µM | HOP-62 > 100 µM

CC1(C)SC2C(NC(=O)Cc3ccccc3)C(=O)N2C1C(=O)O (configuration not stated)
inactive: UACC-62 > 100 µM | OVCAR-8 > 100 µM | OVCAR-4 > 100 µM | ACHN > 100 µM | U-251 > 100 µM | Malme-3M > 100 µM | PC-3 > 100 µM | HCT-116 > 100 µM | OVCAR-3 > 100 µM | SK-MEL-28 > 100 µM | MCF7 > 100 µM | UO-31 > 100 µM | IGROV-1 > 100 µM | CAKI-1 > 100 µM | RXF 393 > 100 µM | MDA-MB-231 > 100 µM | KM12 > 100 µM | HOP-62 > 100 µM

COc1cc2cnc(-c3ccccc3)cc2cc1OC
inactive: UACC-62 10 µM | OVCAR-8 26.5 µM | OVCAR-4 24.3 µM | ACHN 23.3 µM | U-251 19.8 µM | Malme-3M 27.9 µM | PC-3 23 µM | HCT-116 45.6 µM | OVCAR-3 24.3 µM | SK-MEL-28 33.5 µM | MCF7 18.5 µM | UO-31 29.5 µM | IGROV-1 19.1 µM | CAKI-1 20.7 µM | RXF 393 37.2 µM | MDA-MB-231 19.1 µM | KM12 26.9 µM | HOP-62 56.1 µM

CCc1n[nH]c(=O)n1N
inactive: UACC-62 > 100 µM | OVCAR-8 > 100 µM | OVCAR-4 > 100 µM | ACHN > 100 µM | U-251 > 100 µM | Malme-3M > 100 µM | PC-3 > 100 µM | HCT-116 > 100 µM | OVCAR-3 > 100 µM | CCRF-CEM > 100 µM | SK-MEL-28 > 100 µM | MCF7 > 100 µM | UO-31 > 100 µM | IGROV-1 > 100 µM | CAKI-1 > 100 µM | MDA-MB-231 > 100 µM | KM12 > 100 µM | HOP-62 > 100 µM | HCC 2998 > 100 µM

Cc1ccccc1/N=C/N(C)C
inactive: UACC-62 41.9 µM | OVCAR-8 33.9 µM | OVCAR-4 37.5 µM | ACHN 41.8 µM | U-251 39.4 µM | Malme-3M 43.9 µM | PC-3 26.7 µM | HCT-116 33.8 µM | OVCAR-3 17.7 µM | CCRF-CEM 23.2 µM | SK-MEL-28 75.3 µM | MCF7 31.5 µM | UO-31 74.6 µM | IGROV-1 37.3 µM | CAKI-1 > 100 µM | RXF 393 50.4 µM | MDA-MB-231 39 µM | HOP-62 58.6 µM

NCCCNCCCCN1CCOC1=O
inactive: UACC-62 > 100 µM | OVCAR-8 > 100 µM | ACHN > 100 µM | U-251 > 100 µM | Malme-3M > 100 µM | PC-3 > 100 µM | HCT-116 > 100 µM | OVCAR-3 > 100 µM | CCRF-CEM > 100 µM | SK-MEL-28 > 100 µM | MCF7 > 100 µM | UO-31 > 100 µM | IGROV-1 > 100 µM | CAKI-1 > 100 µM | MDA-MB-231 > 100 µM | KM12 > 100 µM | HOP-62 > 100 µM | HCC 2998 > 100 µM

COC(=O)C1OC(SCCN)C(O)C(O)C1O (configuration not stated)
inactive: UACC-62 > 100 µM | OVCAR-8 > 100 µM | OVCAR-4 > 100 µM | ACHN > 100 µM | U-251 > 100 µM | Malme-3M > 100 µM | PC-3 > 100 µM | HCT-116 > 100 µM | OVCAR-3 > 100 µM | CCRF-CEM > 100 µM | SK-MEL-28 > 100 µM | MCF7 > 100 µM | IGROV-1 > 100 µM | CAKI-1 > 100 µM | RXF 393 > 100 µM | MDA-MB-231 > 100 µM | KM12 > 100 µM | HOP-62 > 100 µM

CCOC1Oc2ccccc2-c2nc(SC)ncc21 (configuration not stated)
inactive: UACC-62 75.5 µM | OVCAR-8 > 100 µM | OVCAR-4 > 100 µM | ACHN > 100 µM | U-251 > 100 µM | PC-3 > 100 µM | HCT-116 83.2 µM | OVCAR-3 > 100 µM | CCRF-CEM > 100 µM | MCF7 66.1 µM | UO-31 51.3 µM | IGROV-1 35.2 µM | CAKI-1 > 100 µM | RXF 393 > 100 µM | MDA-MB-231 62.8 µM | KM12 > 100 µM
